Data published in patent US20260151354A1, “SOLID DISPERSION OF CURCUMIN DERIVATIVE METHOD FOR PREPARING SAME, AND USE THEREOF” (WENZHOU MEDICAL UNIVERSITY, priority 2022, published 2026).
Like-named read-outs stand apart in the source and are kept apart here.

Assays:
[1] = Solubility of C66 in solvents (Table 1); assay type: physicochemical
[2] = Permeability of C66 (previous studies); assay type: in vitro ADME
[3] = Saturated concentration of C66 in SDS and Tween 80 solutions; assay type: physicochemical
Source text: The inventors also investigated the solubility of C66 in sodium dodecyl sulfate (SDS) and Tween 80 (T80). According to the recommended usage of surfactants specified in Handbook of Pharmaceutical Excipients, and recommendations from the National Medical Products Administration of China and the U.S. Food and Drug Administration (FDA), a proportion of surfactants in the solution is 1%-3%.

[4] = Solubility of C66 in buffer solutions of different pH (37° C. shaker 24 hours, HPLC); assay type: physicochemical; settings: buffer solutions pH 1.0, 1.2, 2.0, 4.0, 5.0, 6.0, 6.8, 7.4
Experimental: In addition, the inventors also prepared a series of buffer solutions (pH 1.0, pH 1.2, pH 2.0, pH 4.0, pH 5.0, pH 6.0, pH 6.8, and pH 7.4) according to the recommended conditions of the Pharmacopoeia, to investigate the solubility of C66 under different pH conditions. Excess C66 powder was added to each of the solutions to obtain a mixture, the mixture was shaken in a 37° C. shaker for 24 hours. The C66 concentration was then measured using high-performance liquid chromatography.

[5] = Cumulative dissolution of pulverized C66 substance in surfactant aqueous solutions; assay type: physicochemical; settings: 60 min
Experimental: None of them reached the quality control requirement that the cumulative dissolution rate could be equal to or greater than 85% in 30 min-60 min.

[6] = Related substances after acceleration storage; assay type: physicochemical; settings: C66 substance Batch C66-S-ZS-03-09, comparison
Experimental: (§1) Acceleration test conditions: aluminum foil bag packaging, sealed, 40±2° C., 75%±5% RH, sample placement;
(§2) Samples: Solid dispersions obtained in Examples 1, 2, and 3.

[7] = Content determination after acceleration storage; assay type: physicochemical; settings: C66 substance Batch C66-S-ZS-03-09, comparison
Experimental: as §1, §2

[8] = male, Beagle, dog, in vivo
Experimental: (§3) 6 male Beagle dogs (with a weight of 8.00-8.62 kg per dog) that passed the quarantine were selected and divided into 2 groups by weight according to a completely random method, that is, oral administration group, and intravenous injection group, with 3 dogs in each group, and single gavage administration were given. The dogs were subjected to fasting but not water deprivation 12 hours before administration, and were provided with food 4 hours after administration, with free access to water. For the oral administration group, 1% sodium carboxymethyl cellulose (CMC-Na) was mixed with C66 substance to prepare a 0.6 mg/mL suspension for gavage. For the intravenous injection group, a required amount of C66 substance was weighed and dissolved in a solution containing 5% DMSO+10% polyethylene glycol-15 hydroxystearate+85% (20% 2-hydroxypropyl-β-cyclodextrin) to prepare a 1 mg/mL clear solution. Blood samples were collected at different time points after administration, and a concentration of C66 in the blood samples were detected by a liquid chromatograph mass spectrometer to obtain a drug concentration-time curve.
(§4) Plasma samples were analyzed using an AB Sciex 5500 (LC-MS/MS) with an electrospray ionization source (ESI), and monitored with a multiple reaction monitoring (MRM) scanning method in a positive ion mode. A gradient elution was performed with 0.1% formic acid aqueous solution-acetonitrile as a mobile phase. Unknown samples were subjected to protein precipitation using methanol before injection, with a flow rate of 0.3 mL/min. Chromatographic column: Kinetex® 1.7 μm, XB-C18 2.1*100 mm. Guard column: Phenomenex UHPLC C18 2.1 mm. A linear range of C66 was 1.000-288.0 ng/ml, with a lower limit of quantitation of 1.000 ng/mL.
(§5) The dogs were subjected to fasting but not water deprivation 12 hours before administration, and were provided with food 4 hours after administration, with free access to water.
(§6) For the oral administration groups, the blood collection time points were before administration and 15 min, 30 min, 45 min, 1 hour, 2 hours, 3 hours, 4 hours, 6 hours, 8 hours, 10 hours and 24 hours after administration, and 0.5-1.0 mL of blood were collected from a small saphenous vein outside a hind limb or a cephalic vein inside a forelimb, and placed into a heparin sodium anticoagulation tube. For the Intravenous injection group, the blood collection time points were before administration and 5 min, 15 min, 30 min, 45 min, 1 hour, 2 hours, 3 hours, 4 hours, 8 hours, 10 hours and 24 hours after administration, and 0.5-1.0 mL of blood were collected from a small saphenous vein outside a hind limb or a cephalic vein inside a forelimb, and placed into a heparin sodium anticoagulation tube. Main pharmacokinetic parameters such as AUC0-t, AUC0-∞, and t1/2 were calculated using a Phoenix WinNonlin 8.0 software.
(§7) Oral administration group 1: A required amount of C66 substance was weighed, and an appropriate amount of 1% CMC-Na was added to prepare a 0.6 mg/mL suspension.
(§8) Oral administration group 2: A required amount of C66 solid dispersion was weighed, and an appropriate amount of 1% CMC-Na was added to prepare a 0.6 mg/mL suspension.
(§9) Intravenous injection group: A required amount of C66 substance was weighed and dissolved in a solution containing 5% DMSO+10% polyethylene glycol-15 hydroxystearate+85% (20% 2-hydroxypropyl-β-cyclodextrin) to prepare a 1 mg/mL clear solution.

[9] = in vivo; settings: male, Beagle, dog
Experimental: as §3, §4, §5, §6, §7, §8, §9

In the case of `O=C1/C(=C/c2ccccc2C(F)(F)F)CCC/C1=C\c1ccccc1C(F)(F)F` [Example C66], the “Solubility of C66” value ([1]; Ethanol (95%)) is reported as “Slightly soluble”, the “Solubility of C66” value ([1]; Hydrochloric acid solution with a pH of 1.0) is reported as “Almost insoluble or insoluble” and the “Solubility of C66” value ([1]; Phosphate buffer with a pH of 6.8) is reported as “Almost insoluble or insoluble”. For the same compound, the “Solubility of C66” value ([1]; Purified water) was “Almost insoluble or insoluble”, the water solubility ([1]; previous studies) was “poor” and the permeability [2] was “good”. The “Saturated concentration of C66” value ([3]; 1% SDS solution) was 5.158 µg/mL, the “Saturated concentration of C66” value ([3]; 1% Tween 80 solution) was 1.410 µg/mL and the “Saturated concentration of C66” value ([3]; 2% SDS solution) was 9.046 µg/mL. The “Saturated concentration of C66” value ([3]; 2% Tween 80 solution) was 3.385 µg/mL, the “Saturated concentration of C66” value ([3]; 3% SDS solution) was 22.484 µg/mL and the “Saturated concentration of C66” value ([3]; 3% Tween 80 solution) was 15.231 µg/mL. The “solubility under different pH conditions” value [4] was “not dissolved”, the cumulative dissolution rate ([5]; 3% sodium dodecyl sulfate aqueous solution, particle size D0.9<15 μm) was 25.3% and the “maximum cumulative dissolution rate” value ([5]; different concentrations of CTAB aqueous solution) was 18.9%. The cumulative dissolution rate ([5]; different concentrations of triton X-100 aqueous solution) was 26.3%, the Isomer [6] was 0.038% and the “Other largest unknown impurities” value [6] was 0.025%. For the same compound, the “Process impurities 1” value [6] was 0.188%, the “Process impurities 2” value [6] was 0.385% and the Content [7] was 98.5%. For the same compound, the “Absolute bioavailability (AUC0-t)” value [8] was 7.16%, the “ratio of AUC0-t to AUC0-∞” value ([8]; iv, 1 mg/kg) was 99% and the “Relative bioavailability (AUC0-t)” value ([8]; po, 3 mg/kg) was 15.02%. For the same compound, the “ratio of AUC0-t to AUC0-∞” value ([8]; po, 3 mg/kg) was 88%, the AUC(0-t) ([9]; iv, 1 mg/kg, AUC0-t) was 162 ng·h/mL and the AUC(0-t) ([9]; iv, 1 mg/kg, AUC0-t Mean) was 148 ng·h/mL. For the same compound, the AUC(0-inf) ([9]; iv, 1 mg/kg, AUC0-∞) was 163 ng·h/mL, the AUC(0-inf) ([9]; iv, 1 mg/kg, AUC0-∞ Mean) was 149 ng·h/mL and the Cmax ([9]; iv, 1 mg/kg, Cmax) was 334 ng/mL. For the same compound, the Cmax ([9]; iv, 1 mg/kg, Cmax Mean) was 348 ng/mL, the MRT last ([9]; iv, 1 mg/kg, MRTlast) was 41 min and the MRT last ([9]; iv, 1 mg/kg, MRTlast Mean) was 35.9 min. The Tmax ([9]; iv, 1 mg/kg, Tmax) was 4.98 min, the Tmax ([9]; iv, 1 mg/kg, Tmax Mean) was 4.98 min and the half-life ([9]; iv, 1 mg/kg, half-life (t1/2)) was roughly 30 min. The half-life ([9]; iv, 1 mg/kg, t1/2) was 33.7 min, the half-life ([9]; iv, 1 mg/kg, t1/2 Mean) was 30.4 min and the AUC(0-t) ([9]; po, 3 mg/kg, AUC0-t Mean) was 31.8 ng·h/mL. For the same compound, the AUC(0-inf) ([9]; po, 3 mg/kg, AUC0-∞ Mean) was 35.8 ng·h/mL, the Cmax ([9]; po, 3 mg/kg, Cmax Mean) was 15.8 ng/mL and the MRT last ([9]; po, 3 mg/kg, MRTlast) was 113 min. It also gave an MRT last ([9]; po, 3 mg/kg, MRTlast Mean) of 103 min, a Tmax ([9]; po, 3 mg/kg, Tmax) of 120 min and a Tmax ([9]; po, 3 mg/kg, Tmax Mean) of 90 min. It also gave a half-life ([9]; po, 3 mg/kg, half-life (t1/2)) of roughly 60 min, a half-life ([9]; po, 3 mg/kg, t1/2 Mean) of 53.5 min and a Tmax ([9]; po, 3 mg/kg, time to reach peak concentration (Tmax)) of roughly 60 min.
